From ChEMBL document CHEMBL1131823, “Triterpene and diterpene inhibitors of pyruvate dehydrogenase kinase (PDK)” (Bioorg Med Chem Lett, 1999)

Assays:
[1] = organism: Homo sapiens; assay: In vitro effective concentration in normal human dermal fibroblasts; Inactive; assay type: functional
[2] = system: Mus musculus; assay: In vivo activity in a diabetic mouse at a dose of 100 umol/kg/day on day 3 after 2 hr; assay type: functional
[3] = system: Mus musculus; assay: In vivo activity in a diabetic mouse at a dose of 100 umol/kg/day on day 3 after 4 hr; assay type: functional
[4] = system: Mus musculus; assay: In vivo activity in a diabetic mouse at a dose of 100 umol/kg/day on day 3 after 6 hr; assay type: functional
[5] = system: Mus musculus; assay: In vivo activity in a diabetic mouse at a dose of 100 umol/kg/day on day1 after 2 hr; assay type: functional
[6] = system: Mus musculus; assay: In vivo activity in a diabetic mouse at a dose of 100 umol/kg/day on day1 after 4 hr; assay type: functional
[7] = system: Mus musculus; assay: In vivo activity in a diabetic mouse at a dose of 100 umol/kg/day on day1 after 6 hr; assay type: functional
[8] = target: Pyruvate dehydrogenase kinase (Homo sapiens, UniProt Q15119+Q15120+Q16654+Q15118); assay: In vitro inhibitory activity against pyruvate dehydrogenase kinase was determined; assay type: protein assay
[9] = In vitro effective concentration in normal human dermal fibroblasts; assay type: functional
[10] = system: Mus musculus; assay: In vivo activity in a diabetic mouse at a dose of 1000 umol/kg/day on day 3 after 2 hr; assay type: functional
[11] = system: Mus musculus; assay: In vivo activity in a diabetic mouse at a dose of 1000 umol/kg/day on day 3 after 4 hr; assay type: functional
[12] = system: Mus musculus; assay: In vivo activity in a diabetic mouse at a dose of 1000 umol/kg/day on day 3 after 6 hr; assay type: functional
[13] = system: Mus musculus; assay: In vivo activity in a diabetic mouse at a dose of 1000 umol/kg/day on day1 after 2 hours; assay type: functional
[14] = system: Mus musculus; assay: In vivo activity in a diabetic mouse at a dose of 1000 umol/kg/day on day1 after 4 hr; assay type: functional
[15] = system: Mus musculus; assay: In vivo activity in a diabetic mouse at a dose of 1000 umol/kg/day on day1 after 6 hr; assay type: functional
[16] = system: Mus musculus; assay: In vivo activity in a diabetic mouse at a dose of 200 umol/kg/day on day 3 after 2 hr; assay type: functional
[17] = system: Mus musculus; assay: In vivo activity in a diabetic mouse at a dose of 200 umol/kg/day on day 3 after 4 hr; assay type: functional
[18] = system: Mus musculus; assay: In vivo activity in a diabetic mouse at a dose of 200 umol/kg/day on day 3 after 6 hr; assay type: functional
[19] = system: Mus musculus; assay: In vivo activity in a diabetic mouse at a dose of 200 umol/kg/day on day1 after 2 hr; assay type: functional
[20] = system: Mus musculus; assay: In vivo activity in a diabetic mouse at a dose of 200 umol/kg/day on day1 after 4 hr; assay type: functional
[21] = system: Mus musculus; assay: In vivo activity in a diabetic mouse at a dose of 200 umol/kg/day on day1 after 6 hr; assay type: functional
[22] = system: Mus musculus; assay: In vivo activity in a diabetic mouse at a dose of 300 umol/kg/day on day1 after 4 hr; assay type: functional
[23] = system: Mus musculus; assay: In vivo activity in a diabetic mouse at a dose of 300 umol/kg/day on day1 after 6 hr; assay type: functional
[24] = system: Mus musculus; assay: In vivo activity in a diabetic mouse at a dose of 30 umol/kg/day on day 3 after 2 hr; assay type: functional
[25] = system: Mus musculus; assay: In vivo activity in a diabetic mouse at a dose of 30 umol/kg/day on day 3 after 4 hr; assay type: functional
[26] = system: Mus musculus; assay: In vivo activity in a diabetic mouse at a dose of 30 umol/kg/day on day 3 after 6 hr; assay type: functional
[27] = system: Mus musculus; assay: In vivo activity in a diabetic mouse at a dose of 30 umol/kg/day on day1 after 2 hr; assay type: functional
[28] = system: Mus musculus; assay: In vivo activity in a diabetic mouse at a dose of 30 umol/kg/day on day1 after 4 hr; assay type: functional
[29] = system: Mus musculus; assay: In vivo activity in a diabetic mouse at a dose of 30 umol/kg/day on day1 after 6 hr; assay type: functional
[30] = system: Mus musculus; assay: In vivo activity in a diabetic mouse at a dose of 300 umol/kg/day on day 3 after 2 hr; assay type: functional
[31] = system: Mus musculus; assay: In vivo activity in a diabetic mouse at a dose of 300 umol/kg/day on day 3 after 4 hr; assay type: functional
[32] = system: Mus musculus; assay: In vivo activity in a diabetic mouse at a dose of 300 umol/kg/day on day 3 after 6 hr; assay type: functional
[33] = system: Mus musculus; assay: In vivo activity in a diabetic mouse at a dose of 300 umol/kg/day on day1 after 2 hr; assay type: functional
[34] = system: Rattus norvegicus; assay: Effect on blood lactate level after 0 hour of oral administration of compound at a dose of 300 umol/kg; assay type: functional
[35] = system: Rattus norvegicus; assay: Effect on blood lactate level after 2 hours of oral administration of compound at a dose of 300 umol/kg; assay type: functional
[36] = system: Rattus norvegicus; assay: Effect on blood lactate level after 4 hours of oral administration of compound at a dose of 300 umol/kg; assay type: functional
[37] = system: Rattus norvegicus; assay: Effect on blood glucose level after 0 hour of oral administration of compound at a dose of 300 umol/kg; assay type: functional
[38] = system: Rattus norvegicus; assay: Effect on blood glucose level after 2 hours of oral administration of compound at a dose of 300 umol/kg; assay type: functional
[39] = system: Rattus norvegicus; assay: Effect on blood glucose level after 4 hours of oral administration of compound at a dose of 300 umol/kg; assay type: functional

## CC(C)C1=CC2=CC[C@H]3[C@](C)(CO)CCC[C@]3(C)[C@H]2CC1
[1]
  EC50: Not Active
[2]
  Efficacy: 7%
[3]
  Efficacy: 10%
[4]
  Efficacy: 24%
[5]
  Efficacy: 7%
[6]
  Efficacy: -8%
[7]
  Efficacy: 19%
[8]
  IC50: ~ 10 uM

## O=C(O)C(Cl)Cl [DICHLOROACETIC ACID]
[9]
  EC50: 100 µM
[10]
  Efficacy: 52%
[11]
  Efficacy: 50%
[12]
  Efficacy: 56%
[13]
  Efficacy: 59%
[14]
  Efficacy: 39%
[15]
  Efficacy: 29%

## C#C[C@]1(O)CC[C@H]2[C@@H]3CCC4=C/C(=N/O)CC[C@@H]4[C@H]3CC[C@@]21C
[8]
  IC50: 5.8 µM

## CC(C)C1=CC2=CC[C@@H]3[C@](C)(CCC[C@@]3(C)C(=O)O)[C@H]2CC1 [ABIETIC ACID]
[1]
  EC50: Not Active
[16]
  Efficacy: 24%
[17]
  Efficacy: 22%
[18]
  Efficacy: 29%
[19]
  Efficacy: 45%
[20]
  Efficacy: 25%
[21]
  Efficacy: 42%
[8]
  IC50: 20 µM

## C[C@]12CC/C(=N\O)C[C@@H]1CC[C@@H]1[C@@H]2CC[C@]2(C)[C@@H](O)CC[C@@H]12
[8]
  IC50: 51 µM

## C[C@]12CC[C@H]3[C@@H](CCC4=C/C(=N/CC(=O)O)CC[C@@H]43)[C@@H]1CC[C@@H]2O
[8]
  IC50: 56 µM

## CC(C)c1ccc2c(c1)CC[C@H]1[C@](C)(CN)CCC[C@]21C
[1]
  EC50: Not Active
[22]
  Efficacy: 69%
[23]
  Efficacy: 65%
[2]
  Efficacy: 26%
[3]
  Efficacy: 36%
[4]
  Efficacy: 47%
[5]
  Efficacy: 30%
[6]
  Efficacy: 28%
[7]
  Efficacy: 22%
[24]
  Efficacy: -4%
[25]
  Efficacy: 2%
[26]
  Efficacy: 19%
[27]
  Efficacy: 18%
[28]
  Efficacy: -1%
[29]
  Efficacy: 11%
[30]
  Efficacy: 85%
[31]
  Efficacy: 86%
[32]
  Efficacy: 90%
[33]
  Efficacy: 68%
[8]
  IC50: 9.5 µM

## C[C@]12CC/C(=N\O)C[C@H]1CC[C@@H]1[C@@H]2CC[C@]2(C)[C@@H](O)CC[C@@H]12
[8]
  IC50: 36 µM

## CC(C)C1=CC2=CC[C@@H]3[C@](C)(CCC[C@@]3(C)C(N)=O)[C@H]2CC1
[1]
  EC50: Not Active
[16]
  Efficacy: 13%
[17]
  Efficacy: 9%
[18]
  Efficacy: 16%
[19]
  Efficacy: 4%
[20]
  Efficacy: -2%
[21]
  Efficacy: 16%
[8]
  IC50: 6.7 µM

## C[C@]12CC[C@H]3[C@@H](CCC4=C/C(=N/O)CC[C@@H]43)[C@@H]1CC[C@@H]2O
[8]
  IC50: 5.4 µM

## C=C=C[C@]1(O)CC[C@H]2[C@@H]3CCC4=C/C(=N/O)CC[C@@H]4[C@H]3CC[C@@]21C
[1]
  EC50: Not Active
[9]
  EC50: 1.7 µM
[22]
  Efficacy: 19%
[23]
  Efficacy: 51%
[2]
  Efficacy: 73%
[3]
  Efficacy: 70%
[4]
  Efficacy: 47%
[5]
  Efficacy: 3%
[6]
  Efficacy: 4%
[7]
  Efficacy: 26%
[24]
  Efficacy: 38%
[25]
  Efficacy: 43%
[26]
  Efficacy: -6%
[27]
  Efficacy: -6%
[28]
  Efficacy: -3%
[29]
  Efficacy: 2%
[30]
  Efficacy: 92%
[31]
  Efficacy: 83%
[32]
  Efficacy: 75%
[33]
  Efficacy: -2%
[8]
  IC50: 0.84 µM
[34]
  Blood lactate: 1.01 mM
[35]
  Blood lactate: 0.8 mM
[36]
  Blood lactate: 0.79 mM
[37]
  Blood glucose: 49.5 mg/dL
[38]
  Blood glucose: 49.1 mg/dL
[39]
  Blood glucose: 49.3 mg/dL

## C[C@]12CC[C@H]3[C@@H](CCC4=CC(=O)CC[C@@H]43)[C@@H]1CC[C@@H]2O [NANDROLONE]
[8]
  IC50: 120 µM
